Eleven compounds from PubChem BioAssay (NCI) can be followed below.

Among the test systems are K-562 leukemia; MCF7 breast; T-47D breast; HOP-62 NSCLC; NCI-H226 lung; M14 melanoma; NCI/ADR-RES ovarian; SW-620 colon; U251 CNS; TK-10 renal.
Common to all, as to assay: NCI-60 cell line screen, 48 h

Structures are written as SMILES. Values joined by “and” are separate entries in the source; they are usually repeats but may differ in a detail not shown here. Identical values can stand only once.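 How tested: cells in 96-well plates exposed to compound for 48 hours at five concentrations. The concentration for 50% growth inhibition is given as GI50. The concentration for full growth arrest is given as TGI.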

Regarding `O=C(/C=C/c1cccc(Cl)c1)c1ccccc1`, the GI50 in the assay with K-562 leukemia was 2.86 µM; in the assay with MCF7 breast it was 1.68 µM; with T-47D breast, 12.7 µM; with HOP-62 NSCLC it was 15.7 µM; in the assay with NCI-H226 lung it was 14.4 µM; with M14 melanoma, 3.78 µM. In addition, the results for the GI50 in the assay on NCI/ADR-RES ovarian, with SW-620 colon and with U251 CNS were 16.3 µM, 1.47 µM and 2.67 µM, respectively. Also, the TGI with K-562 leukemia was determined as 18.9 µM; in the assay on MCF7 breast, 10.3 µM; in the assay with T-47D breast it was 32.2 µM; in the assay on HOP-62 NSCLC, 29.9 µM; in the assay on NCI-H226 lung, 29.6 µM; with M14 melanoma, 13.5 µM. Further, the TGI in the assay on NCI/ADR-RES ovarian was 49.8 µM; with SW-620 colon it was 2.97 µM; in the assay with U251 CNS, 7.89 µM.

For `O=C1CC[C@@H]2[C@H]3CCC(=O)c4c3c(c3cccc(O)c3c4O)O[C@@]23C(=O)c2cccc(O)c2C(O)=C13`, the GI50 in the assay with K-562 leukemia, in the assay with MCF7 breast, in the assay on HOP-62 NSCLC, in the assay on NCI-H226 lung, with TK-10 renal and in the assay with NCI/ADR-RES ovarian was over 100 µM in each case. In addition, the GI50 with SW-620 colon and with U251 CNS was over 100 µM each time. Besides, the TGI in the assay on K-562 leukemia, in the assay with MCF7 breast, in the assay with HOP-62 NSCLC, in the assay with NCI-H226 lung, in the assay on TK-10 renal and in the assay with NCI/ADR-RES ovarian was over 100 µM in each case. Moreover, the TGI with SW-620 colon and in the assay with U251 CNS was over 100 µM throughout.

Take `COC(=O)c1cc2c3cc(Cl)ccc3[nH]c2c2ncccc12`: the GI50 in the assay with K-562 leukemia is over 100 µM; in the assay with MCF7 breast, over 100 µM; with T-47D breast, 24.7 µM; in the assay with HOP-62 NSCLC, over 100 µM; in the assay with NCI-H226 lung it was over 100 µM; with TK-10 renal, over 100 µM. Further, the GI50 with NCI/ADR-RES ovarian, with SW-620 colon and with U251 CNS was over 100 µM throughout. For the same compound, the TGI in the assay with K-562 leukemia, with MCF7 breast, in the assay with T-47D breast, in the assay on HOP-62 NSCLC, with NCI-H226 lung and in the assay on TK-10 renal was over 100 µM each time. Besides, the TGI with NCI/ADR-RES ovarian, in the assay on SW-620 colon and with U251 CNS was over 100 µM each time.

With `NNC(=S)N/N=C(\c1nc2ccc(Cl)cc2[nH]c1=O)C(O)c1cccc([N+](=O)[O-])c1` (configuration not stated), the TGI with K-562 leukemia was over 70.2 µM; in the assay with HOP-62 NSCLC, over 55.8 µM; with NCI-H226 lung, over 100 µM; in the assay with M14 melanoma, over 88 µM; in the assay on TK-10 renal it was over 100 µM; with SW-620 colon it was 41.9 µM. In the assay with U251 CNS, this compound yielded a TGI of over 100 µM.

Turning to `CCOC(=O)c1ccc(N[C@@H]2c3cc4c(cc3C(c3cc(OC)c(O)c(OC)c3)[C@H]3C(=O)OCC32)OCO4)cc1` (some centres not stated), the GI50 was 0.662 µM and 1.44 µM in the assay with K-562 leukemia; 0.212 µM and 0.129 µM with HOP-62 NSCLC; 0.353 µM with M14 melanoma; 5 µM in the assay with TK-10 renal; 0.536 µM in the assay with SW-620 colon; 0.203 µM in the assay with U251 CNS. Moreover, the TGI in the assay with K-562 leukemia is 27.2 µM; in the assay on MCF7 breast it was 20.3 µM; with HOP-62 NSCLC it was 0.709 µM and 0.79 µM; in the assay with NCI-H226 lung, 0.719 µM and 1.95 µM; in the assay on M14 melanoma, 4.32 µM; with TK-10 renal, 11.3 µM. The TGI in the assay on NCI/ADR-RES ovarian was 6.41 µM; in the assay with SW-620 colon it was 28.4 µM; in the assay with U251 CNS, 3.27 µM.

For the compound `CC(C)C[C@H](NC(=O)[C@@H](N)Cc1cccc2ccccc12)B(O)O`, the GI50 in the assay on MCF7 breast was 0.389 µM; in the assay on T-47D breast, 0.432 µM; in the assay on HOP-62 NSCLC it was 0.831 µM; in the assay on M14 melanoma, 0.206 µM and 0.0374 µM; in the assay with TK-10 renal it was 0.439 µM; in the assay on NCI/ADR-RES ovarian, 1.39 µM and 0.183 µM. Moreover, the results for the GI50 in the assay on SW-620 colon and in the assay with U251 CNS were 0.231 µM and 0.392 µM, respectively. In addition, the TGI with MCF7 breast was 50 µM; with NCI-H226 lung, under 0.0186 µM.

Consider `COC(=O)N1C=CC2=C(C)C3Nc4ccccc4C3C(C)=C2C1` (configuration not stated), for which the TGI with K-562 leukemia is 14.5 µM; with HOP-62 NSCLC, 12.6 µM; with NCI-H226 lung, 5.1 µM; in the assay on M14 melanoma it was 8.29 µM; in the assay on TK-10 renal, 7.24 µM; with SW-620 colon, 21.9 µM. Besides, the TGI in the assay on U251 CNS is over 100 µM.

Take `Cc1ccccc1-c1cc(=O)c2cc(C)c(C)c(C(=O)O)c2o1`: the TGI in the assay on K-562 leukemia, in the assay on HOP-62 NSCLC, in the assay with NCI-H226 lung, in the assay with M14 melanoma, in the assay with TK-10 renal and in the assay with SW-620 colon was over 100 µM each time. Further, the TGI in the assay with U251 CNS is over 100 µM.

For `CC1Nc2ccccc2NC1C=C(C#N)C#N` (configuration not stated), the TGI was 48.5 µM in the assay with K-562 leukemia; 43.7 µM in the assay with HOP-62 NSCLC; 36.9 µM in the assay on NCI-H226 lung; 25.7 µM with M14 melanoma; 34.2 µM in the assay with TK-10 renal; 25.1 µM in the assay with SW-620 colon. The compound further registered a TGI in the assay with U251 CNS of 30.3 µM.

As to `O=C1/C(=C/c2ccccc2)CN(C(=O)/C=C/c2ccccc2)C/C1=C\c1ccccc1`, the TGI was over 43.3 µM in the assay with K-562 leukemia; 3.83 µM in the assay on MCF7 breast; 15.1 µM in the assay on T-47D breast; 48.9 µM in the assay with HOP-62 NSCLC; 60.6 µM with NCI-H226 lung; 12.8 µM in the assay on M14 melanoma. Moreover, the figures for the TGI in the assay on TK-10 renal, with SW-620 colon and in the assay on U251 CNS were 65.3 µM, 5.28 µM and 7.37 µM, respectively.

As to `O=C(N/N=C/c1coc2ccc(Cl)cc2c1=O)c1cc(O)c(O)c(O)c1`, the GI50 is 15.2 µM with K-562 leukemia; 75.7 µM in the assay on MCF7 breast; over 100 µM in the assay with T-47D breast; 38.8 µM with HOP-62 NSCLC; 26.1 µM with NCI-H226 lung; 19.3 µM with M14 melanoma. Also, the results for the GI50 in the assay with NCI/ADR-RES ovarian, with SW-620 colon and in the assay with U251 CNS were 17.8 µM, 25.8 µM and 22.2 µM, respectively. The TGI in the assay with K-562 leukemia was 55.6 µM; in the assay on MCF7 breast it was over 100 µM; in the assay on T-47D breast, over 100 µM; in the assay on HOP-62 NSCLC, 89.4 µM; in the assay on NCI-H226 lung it was 68.4 µM; with M14 melanoma, 47 µM. The results for the TGI in the assay on NCI/ADR-RES ovarian, with SW-620 colon and with U251 CNS were 50.2 µM, 97.4 µM and 57.2 µM, respectively.
